Test results from patent US4250255A, “Assay method for isoenzyme activity” (Eastman Kodak Company, priority 1977, dated 1981).

Legend:
LD1 and LD5 = test: Screening of amphiphiles for ability to discriminate between LD1 and LD5; settings: range of amphiphile concentrations; relative activity vs buffer
Protocol: A series of solutions was prepared covering a range of concentrations for each amphiphile to be tested. The activities of both LD1 and LD5 were determined in the presence of the various concentrations of each amphiphile and compared with enzyme activities in buffer (relative activity).
Enzyme activity in the presence and absence of amphiphile was measured by the following procedure: Stock solutions of NADH (4 mM) and pyruvate (40 mM) were prepared daily in 30 mM sodium phosphate buffer, pH 7.4. Enzyme solutions were prepared daily by withdrawing 5 μl of the stock enzyme solutions with a Hamilton syringe and diluting to 5 ml with 30 mM sodium phosphate buffer. (The resulting solution contains approximately 5 U of enzyme/ml.) The enzyme assay was run by pipetting 2.7 ml of buffer or buffer surfactant solution into a 10 mm path length quartz cuvette, and 100 μl each of NADH and pyruvate stock solutions were added. […] Enzyme solution was added with good mixing; the absorbance decrease at 340 nm was measured as a function of time. The rate of the reaction was determined by measuring the slope of the initial absorbance decrease, i.e., within the first 50 seconds of the reaction.

LD1 [1] = target: LD1 (Sus scrofa, UniProt P00336); test: Effect of cationic amphiphiles on the activity of LDH isoenzymes (Table 1); type: biochemical; settings: 30 mM sodium phosphate buffer pH 7.4, 25° C.; read-out: Amphiphile conc. Req'd for 50% Inactivation of Specified Isoenzyme (LD1)
LD1 (Sus scrofa, UniProt P00336), sequence (P00336 whole entry): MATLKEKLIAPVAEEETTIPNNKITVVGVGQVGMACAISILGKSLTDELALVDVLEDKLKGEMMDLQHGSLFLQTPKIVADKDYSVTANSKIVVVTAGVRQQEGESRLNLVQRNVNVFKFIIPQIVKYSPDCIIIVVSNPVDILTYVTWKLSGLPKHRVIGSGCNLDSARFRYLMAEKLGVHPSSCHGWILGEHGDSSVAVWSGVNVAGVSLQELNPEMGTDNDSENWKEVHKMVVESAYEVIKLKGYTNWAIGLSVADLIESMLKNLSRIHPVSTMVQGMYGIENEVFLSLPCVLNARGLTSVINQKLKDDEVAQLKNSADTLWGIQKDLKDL
Protocol: (§1) The assay for LDH activity in both the absence and presence of surfactant was conducted as follows. […] The resulting solution contains approximately 5 units/ml. […] To the equilibrated solution […]. of the enzyme solution was added, and the cuvette was rapidly shaken while covering the top of the cuvette with a small piece of Parafilm® and placed back into the spectrophotometer.
(§2) Amphiphile solutions were prepared by weighing out a given amount of amphiphile, e.g., 100 mg, and preparing a stock solution in 30 mM sodium phosphate buffer in 100 ml. volumetric flask. Solutions of lower amphiphile concentration were prepared by making the appropriate dilutions from the stock solution.
A number of cationic amphiphiles were investigated for specific inactivation of LD1 in the presence of LD5 and these compounds are listed in Table 1.

[2] = target: T1, LDH isoenzymes (LD5 in the presence of LD1) (Oryctolagus cuniculus, UniProt P13491); test: Anionic amphiphiles tested for specific interaction with LDH isoenzymes (Table 2); type: biochemical
T1 construct: LD1 (LDHB tetramer) only as comparison
Protocol: as §1, §2
A number of anionic amphiphiles were investigated for specific inactivation of LD5 in the presence of LD1 and these compounds are listed in Table 2.

LD1 [3] = test: LDH activity assay with amphiphile, LDH isoenzymes; type: biochemical, porcine; settings: FIG. 12
Protocol: 3. Beef heart LDH (Sigma Chemical Co., Type III), rabbit muscle LDH (Sigma Chemical Co., Type V) and porcine LDH, LD1, LD2, LD3, LD4 and LD5 in the form of ammonium sulfate suspensions were used for these examples.
as §1, §2

Compound | Effectiveness (LDH isoenzyme inhibition specificity, LD1 vs LD5) (LD1 and LD5) | further results
CCCCCCCCCCCC(=O)[O-].[Na+] [Sodium dodecanoate] | 0 | 
CCCCCCCCOS(=O)(=O)[O-].[Na+] [Sodium octyl sulfate] | + | 
CCCCCCCCCCCCCCCCCC(=O)[O-].[Na+] [Sodium stearate] | 0 | 
CCCCCCCCCCCCCCOS(=O)(=O)[O-].[Na+] [Sodium tetradecylsulfate] | ++ | 
CCCCCCCC[N+](CCC)(CCCCCCCC)CCCCCCCC.[Br-] [Trioctylpropylammonium bromide] | 0 | IC50 (LD1 [1]): 1600 µM
C[C@H](CCC(=O)O)[C@H]1CC[C@H]2[C@@H]3C(=O)C[C@@H]4CC(=O)CC[C@]4(C)[C@H]3CC(=O)[C@]12C [dehydrocholic acid] |  | Interaction (specific inactivation of LD5 in the presence of LD1) [2]: no effect
CCCCCCCCCCCC(=O)O [lauric acid] |  | Interaction (specific inactivation of LD5 in the presence of LD1) [2]: no effect
CCCCCCCCCCCCCCCCCC(=O)[O-].[Li+] [lithium stearate] |  | Interaction (specific inactivation of LD5 in the presence of LD1) [2]: no effect
Heparin | + | inactivation of LD1 compared with LD5 (LD1 [3]): LD1 is more inactivated than LD5
Sodium isopropylnaphthalene sulfonate | + | 
Sodium n-decyldiphenylether disulfonate | ++ | 
octylphenolpoly(1-oxapropene)oxaethane carboxylic acid sodium salt | 0 | 
